Test: Log P by HPLC on reversed phase columns (EEC directive 79/831 Annex V.A8)
Format: physicochemical
How it was run: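 Reversed-phase HPLC per EEC 79/831 Annex V.A8, LC-UV with 10→95% acetonitrile linear gradient; eluent [a] 0.1% formic acid (acidic), [b] 0.001 M ammonium acetate (neutral), [c] 0.1% phosphoric acid (acidic). Calibrated with C3–C16 straight-chain alkan-2-ones, linear interpolation of retention times; multiple values joined by "+".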

| SMILES | LogP (method [a]) | LogP (method marked [a]) |
| --- | --- | --- |
| CCOC(=O)C(Cc1ccccc1)NC(=O)c1sc(Cl)c(Br)c1F (stereo not shown) [1.0640] | 4.50^[a] |  |
| COC(=O)C1(NC(=O)c2sc(Cl)c(Br)c2F)CCC1 [1.0641] | 3.29^[a] |  |
| CCOC(=O)C1(NC(=O)c2sc(Cl)c(Br)c2F)CCC1 [1.0642] | 3.75^[a] |  |
| CCCOC(=O)C1(NC(=O)c2sc(Cl)c(Br)c2F)CC1 [1.0643] | 3.52^[a] |  |
| O=C(NC1(C(=O)OC2CCC2)CC1)c1sc(Cl)c(Br)c1F [1.0644] | 3.69^[a] |  |
| N#CCNC(=O)c1sc(Cl)c(Br)c1F [1.0645] | 2.36^[a] |  |
| CCOC(=O)CNC(=O)c1sc(Br)c(C(F)F)c1Br [1.0646] | 2.92^[a] |  |
| COC(=O)CNC(=O)c1sc(Br)c(C(F)F)c1Br [1.0647] | 2.56^[a] |  |
| CCOC(=O)C1(NC(=O)c2sc(Br)c(C(F)F)c2Br)CC1 [1.0648] | 3.05^[a] |  |
| COC(=O)C1(NC(=O)c2sc(Br)c(C(F)F)c2Br)CC1 [1.0649] | 2.70^[a] |  |
| COC(=O)C(NC(=O)c1sc(Cl)c(Br)c1F)C1CC1 (stereo not shown) [1.0650] | 3.41^[a] |  |
| Cc1c(C(=O)NC2(C(=O)OC3CCC3)CC2)sc(Br)c1Cl [1.0651] | 3.78^[a] |  |
| N#CCNC(=O)c1sc(Br)c(C#N)c1Cl [1.0652] | 2.03^[a] |  |
| CCOC(=O)CNC(=O)c1sc(Cl)c(C#N)c1Br [1.0653] | 2.58^[a] |  |
| COC(=O)CNC(=O)c1sc(Cl)c(C#N)c1Br [1.0654] | 2.21^[a] |  |
| CCOC(=O)C1(NC(=O)c2sc(Cl)c(C#N)c2Br)CC1 [1.0655] | 2.69^[a] |  |
| COC(=O)C1(NC(=O)c2sc(Cl)c(C#N)c2Br)CC1 [1.0656] | 2.34^[a] |  |
| COC(=O)C(C)(C)NC(=O)c1sc(Cl)c(C#N)c1Br [1.0657] | 2.83^[a] |  |
| CCOC(=O)C(NC(=O)c1sc(Cl)c(C#N)c1Br)C(C)C (stereo not shown) [1.0658] |  | 3.83^[a] |
| COC(=O)C(NC(=O)c1sc(Cl)c(C#N)c1Br)C1CC1 (stereo not shown) [1.0659] |  | 3.00^[a] |

| SMILES | LogP (method [a]) | LogP (method marked [a]) |
| --- | --- | --- |
| CCOC(=O)C(Cc1ccccc1)NC(=O)c1sc(Cl)c(C#N)c1Br (stereo not shown) [1.0660] |  | 4.09^[a] |
| COC(=O)C1(NC(=O)c2sc(Cl)c(C#N)c2Br)CCC1 [1.0661] |  | 2.87^[a] |
| CCOC(=O)C1(NC(=O)c2sc(Cl)c(C#N)c2Br)CCC1 [1.0662] |  | 3.28^[a] |
| N#CCNC(=O)c1sc(Cl)c(C#N)c1Br [1.0663] |  | 2.03^[a] |
| CCOC(=O)CNC(=O)c1sc(C#N)c(Cl)c1Br [1.0664] |  | 2.64^[a] |
| COC(=O)CNC(=O)c1sc(C#N)c(Cl)c1Br [1.0665] |  | 2.25^[a] |
| CCOC(=O)C1(NC(=O)c2sc(C#N)c(Cl)c2Br)CC1 [1.0666] |  | 2.76^[a] |
| COC(=O)C1(NC(=O)c2sc(C#N)c(Cl)c2Br)CC1 [1.0667] |  | 2.42^[a] |
| COC(=O)C(C)(C)NC(=O)c1sc(C#N)c(Cl)c1Br [1.0668] |  | 2.90^[a] |
| CCOC(=O)C(NC(=O)c1sc(C#N)c(Cl)c1Br)C(C)C (stereo not shown) [1.0669] |  | 3.90^[a] |
| COC(=O)C(NC(=O)c1sc(C#N)c(Cl)c1Br)C1CC1 (stereo not shown) [1.0670] |  | 3.07^[a] |
| CCOC(=O)C(Cc1ccccc1)NC(=O)c1sc(C#N)c(Cl)c1Br (stereo not shown) [1.0671] |  | 4.14^[a] |
| COC(=O)C1(NC(=O)c2sc(C#N)c(Cl)c2Br)CCC1 [1.0672] |  | 2.96^[a] |
| CCOC(=O)C1(NC(=O)c2sc(Br)c(C#N)c2Cl)CCC1 [1.0673] |  | 3.30^[a] |
| COC(=O)C1(NC(=O)c2sc(Br)c(C#N)c2Cl)CCC1 [1.0674] |  | 2.89^[a] |
| CCOC(=O)C(Cc1ccccc1)NC(=O)c1sc(Br)c(C#N)c1Cl (stereo not shown) [1.0675] |  | 4.06^[a] |
| COC(=O)C(NC(=O)c1sc(Br)c(C#N)c1Cl)C1CC1 (stereo not shown) [1.0676] |  | 2.99^[a] |
| O=C(CNC(=O)c1sc(Br)c(Br)c1Cl)OC1CCOC1 (stereo not shown) [1.0677] |  | 2.84^[a] |
| O=C(CNC(=O)c1sc(Br)c(Br)c1F)OC1CCOC1 (stereo not shown) [1.0678] |  | 2.53^[a] |
| Cc1c(C(=O)NCC(=O)OC2CCOC2)sc(C#N)c1Br (stereo not shown) [1.0679] |  | 2.12^[a] |

— patent publication US12642270B2, “Substituted thiophene carboxamides, thiophene carboxylic acids and derivatives thereof” (Bayer Aktiengesellschaft, priority 2019, dated 2026)
